Measurements as given in ChEMBL document CHEMBL3430912, “GSK Tres Cantos Anti-Kinetoplastid Screening (TCAKS) Data”.

Key:
[1] = test system: Trypanosoma cruzi; test: GSK_TCAKS: pIC50 Trypanosoma cruzi viability assay using beta-GAL activity. This assay was run at single shot at 5uM compound concentration per well. The biological reagents consisted of NIH-3T3 host cells and trypomastigotes parasitic cells; both cell types were set to a 3.3 * 10^5 cells/mL dilution in assay DMEM by means of a CASY cell counter device using a 60um capillary. 6 uL of the mixture were dispensed per well (about 1 * 10^3 host-cells and 1 * 10^3 parasites) with a Multidrop Combi dispenser. […] In all wells, the percentage of DMSO never exceeded 0.5%. Plates incubated for four days at 37C, 5% CO2. The substrate used for the assay fluorescence intensity (FLINT) readout was resorufin-beta-D-galactopiranoside (Sigma-Aldrich) at 5uM per well. It was diluted in PBS supplemented with the soft detergent Igepal (Fluka).; assay type: functional, organism-based, Mus musculus; settings: Tulahuen, NIH3T3
[2] = biological target: Sterol 14-alpha demethylase (Trypanosoma cruzi (strain CL Brener), UniProt Q7Z1V1); test: GSK_TCAKS: pIC50 CYP51 from Trypanosoma cruzi.; assay type: functional
Sequence of Sterol 14-alpha demethylase (Q7Z1V1 whole entry): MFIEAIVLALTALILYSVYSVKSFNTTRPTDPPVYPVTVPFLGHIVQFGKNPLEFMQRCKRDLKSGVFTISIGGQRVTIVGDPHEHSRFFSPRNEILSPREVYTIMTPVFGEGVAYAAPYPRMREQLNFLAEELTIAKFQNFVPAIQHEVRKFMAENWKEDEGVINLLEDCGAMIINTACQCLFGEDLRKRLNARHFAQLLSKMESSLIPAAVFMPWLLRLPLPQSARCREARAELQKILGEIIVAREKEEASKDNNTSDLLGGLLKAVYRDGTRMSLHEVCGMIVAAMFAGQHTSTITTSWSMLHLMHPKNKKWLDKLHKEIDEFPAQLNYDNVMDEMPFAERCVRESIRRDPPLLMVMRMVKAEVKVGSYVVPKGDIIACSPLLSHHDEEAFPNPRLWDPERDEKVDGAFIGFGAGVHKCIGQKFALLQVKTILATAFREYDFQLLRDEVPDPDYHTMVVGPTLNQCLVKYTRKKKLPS

[3] = test system: Trypanosoma cruzi; test: GSK_TCAKS: pIC50 Trypanosoma cruzi Imaging: Amastigotes/Cell. […] Cells were then washed once with PBS before infection. T. cruzi trypomastigotes, collected at days 5 to 8 after infection from LLC-MK2 parasite infected cultures, were allowed to swim out for 4h at 37C from a centrifuged pellet (2,500 rpm/10 min/room temperature). Trypomastigotes were then collected and counted in a CASY Cell Counter. Trypomastigotes, in supplemented DMEM, were added to H9c2 cultures in a multiplicity of infection of 1 and incubated for 18 h. Cells were washed once with PBS before incubation of the infected H9c2 monolayer with trypsin (Life-Technologies) to detach cells from the flask. Cells were counted in a CASY Cell Counter using a 150 um capillary and their density set at 5 * 10^4 cells per mL in supplemented assay DMEM. Infected H9c2 were dispensed into 384-well poly-lysine coated assay plates at 50uL per well using a Multidrop Combi dispenser. After seeding them, the plates were incubated at 37C, 5% CO2 for 72h. Cultures were then fixed and stained by addition of 50 uL of a solution containing 8% formaldehyde and 4 uM DRAQ5 DNA dye (BioStatus, UK) per well. […] Five images were collected per well for reliable statistical analysis. Automated image analysis was performed with a script developed on Acapella High Content Imaging and Analysis Software (PerkinElmer). Output: number of amastigotes per cell as infection level measurement.; assay type: functional, organism-based, Rattus norvegicus; settings: H9c2, 4 h
[4] = GSK_TCAKS: pIC50 HepG2 human cell line viability assay using luminiscence. […] Seeding density was checked to ensure that new mono-layers were not more than 50% confluent at the time of harvesting. Cell suspension was added to 500 mL of the same medium at a final density of 1.2 * 10^5 cells/mL. This cell suspension was dispensed (25 uL, 3000 cells per well) into 384-well clear-bottom plates using a Multidrop Combi dispenser. Prior to addition of the cell suspension, the screening compounds (250 nL) were pre-dispensed into the plates with an Echo liquid handler. Plates were incubated for 48 h at 37C, 5% CO2. After incubation, plates equilibrated at room temperature for 30 min before proceeding to develop the luminescent signal. The signal developer, CellTiter-Glo Reagent, was allowed to equilibrate at room temperature for 30 min and added to the plates (25uL per well) using a Multidrop Combi dispenser. Plates were left for 10 min at room temperature for stabilization and then read using a ViewLux.; assay type: toxicity, cell-based
[5] = test system: Leishmania donovani; test: GSK_TCAKS: pIC50 Leishmania donovani Imaging: Amastigotes/Macrophages. Assay plates (384-well) were prepared by adding 250nL of compound to each well. For single shot assay, the final compound concentration was 5 uM. […] Automated image analysis was performed with a script developed on Acapella High Content Imaging and Analysis Software (PerkinElmer). Output: Average number of amastigotes per macrophage cell were reported for each well.; assay type: functional, organism-based, Homo sapiens; settings: THP-1
[6] = test system: Trypanosoma brucei brucei; test: GSK_TCAKS: pIC50 Trypanosoma brucei viability assay using luminiscence. Assay plates (1536-well) were prepared. T. brucei cultures were harvested and counted in a CASY cell counter. A parasite suspension was prepared at a final concentration of 5 * 10^4 cells/mL in complete HMI9 medium and 6uL was dispensed to all wells containing compounds using a Multidrop Combi dispenser. 6uL of HMI9 media with 0.4% DMSO were dispensed to control columns. Plates were incubated for 24 h at 37C, 5% CO2 then tempered for 10 min at room temperature. ATP content was quantified by adding 4 uL of CellTiter-Glo Reagent (Promega) according to the manufacturer's instructions. Luminescence was measured using a ViewLux.; assay type: functional, organism-based; settings: Lister 427, CASY
[7] = test system: Leishmania donovani; test: GSK_TCAKS: pIC50 Leishmania donovani Imaging: THP-1 Host Macrophages. Assay plates (384-well) were prepared by adding 250nL of compound to each well. For single shot assay, the final compound concentration was 5 uM. […] Automated image analysis was performed with a script developed on Acapella High Content Imaging and Analysis Software (PerkinElmer). Output: THP-1 cell count were reported for each well.; assay type: functional, organism-based, Homo sapiens
[8] = test system: Trypanosoma brucei brucei; test: GSK_TCAKS: pIC50 Trypanosoma brucei viability assay using fluorescence intensity. Assay plates (1536-well) were prepared by dispensing 25nL of compound solution per well using an Echo acoustic dispenser (Labcyte).; assay type: functional, organism-based; settings: Lister 427, 2 h
[9] = test system: Trypanosoma cruzi; test: (§1) GSK_TCAKS: pIC50 Trypanosoma cruzi Imaging: Infected Cells. […] Cells were then washed once with PBS before infection. T. cruzi trypomastigotes, collected at days 5 to 8 after infection from LLC-MK2 parasite infected cultures, were allowed to swim out for 4h at 37C from a centrifuged pellet (2,500 rpm/10 min/room temperature). Trypomastigotes were then collected and counted in a CASY Cell Counter. Trypomastigotes, in supplemented DMEM, were added to H9c2 cultures in a multiplicity of infection of 1 and incubated for 18 h. Cells were washed once with PBS before incubation of the infected H9c2 monolayer with trypsin (Life-Technologies) to detach cells from the flask. Cells were counted in a CASY Cell Counter using a 150 um capillary and their density set at 5 * 10^4 cells per mL in supplemented assay DMEM. Infected H9c2 were dispensed into 384-well poly-lysine coated assay plates at 50uL per well using a Multidrop Combi dispenser. After seeding them, the plates were incubated at 37C, 5% CO2 for 72h. Cultures were then fixed and stained by addition of 50 uL of a solution containing 8% formaldehyde and 4 uM DRAQ5 DNA dye (BioStatus, UK) per well. […] Five images were collected per well for reliable statistical analysis. Automated image analysis was performed with a script developed on Acapella High Content Imaging and Analysis Software (PerkinElmer). Output: percentage of infected cells per well as a second infection marker.; assay type: functional, organism-based, Rattus norvegicus; settings: H9c2, 4 h
[10] = test system: Trypanosoma cruzi; test: as §1, with “H2C9” for “Trypanosoma cruzi”, “H9c2 Host Cardiomyocytes.” for “Infected Cells.”, “Number” for “percentage”, “H9c2 Host Cardiomyocytes nuclei to determine drug-related cytotoxicity.” for “infected cells per well as a second infection marker.”; assay type: functional, organism-based, Rattus norvegicus; settings: H9c2, 4 h
[11] = test system: Leishmania donovani; test: GSK_TCAKS: pIC50 Leishmania donovani Imaging: Infected Macrophages. Assay plates (384-well) were prepared by adding 250nL of compound to each well. For single shot assay, the final compound concentration was 5 uM. […] Automated image analysis was performed with a script developed on Acapella High Content Imaging and Analysis Software (PerkinElmer). Output: Percent of infected macrophage cells were reported for each well.; assay type: functional, organism-based, Homo sapiens; settings: THP-1
[12] = test system: Leishmania donovani; test: GSK_TCAKS: pIC50 Leishmania donovani viability assay using fluorescence intensity. Assay plates (1536-well) were prepared by adding 30nL per well of compound. For single shot assay, the final compound concentration was 5uM. […] Briefly, eGFP LdBOB axenic amastigotes were harvested, fixed and counted in a CASY cell counter (Roche-Applied Science). A final concentration of 1.5 * 10^5 cells per well were prepared in amastigote media containing 500 U/mL penicillin/streptomycin (Invitrogen) and 6uL was dispensed to each experimental well using a Multidrop Combi dispenser (Thermo Scientific). 6uL of assay media was dispensed to control columns used as reference for 100% compound response. Following incubation for 72 h at 37C, 5% CO2, 2 uL of resazurin was added to each well at a final concentration of 0.5 mM in phosphate buffered saline (PBS) with IGEPAL (Sigma-Aldrich), 0.05% (v/v).; assay type: functional, organism-based

Row | Compound | IC50 [1] | IC50 [2] | IC50 [3] | IC50 at 48 h [4] | IC50 [5] | IC50 [6] | IC50 [7] | IC50 [8] | IC50 [9] | IC50 [10] | IC50 [11] | IC50 [12]
1 | O=C(NCc1ccc(Cl)cc1)C1CN(C(=O)c2ccc(F)cc2)CCS1 (configuration not stated) | 25.1 µM | 12.6 µM | 31.6 µM | > 100 µM | > 50.1 µM | 0.631 µM | > 50.1 µM | 0.794 µM | 39.8 µM | > 50.1 µM | > 50.1 µM | > 50.1 µM
2 | Cc1ccc2onc(Nc3ccnc(Nc4cccc(S(C)(=O)=O)c4)n3)c2c1 | 3.98 µM | 39.8 µM | 0.398 µM | 50.1 µM | 1 µM | 7.94 µM | 20 µM | 6.31 µM | 0.631 µM | 5.01 µM | 2 µM | 5.01 µM
3 | N#Cc1cc(-c2ccnc(Nc3cccc(CN4CCOCC4)c3)n2)ccc1NCCN | 7.94 µM | 31.6 µM | 15.8 µM | 50.1 µM | 0.794 µM | 1.26 µM | 7.94 µM | 0.398 µM | 31.6 µM | 7.94 µM | 1.58 µM | 3.98 µM
4 | CCS(=O)(=O)c1cccc(C(=O)Nc2nc(-c3ccccn3)cs2)c1 | 1.58 µM | 63.1 µM | 1.58 µM | 25.1 µM | 3.16 µM | 0.631 µM | 20 µM | 0.501 µM | 2.51 µM | 3.98 µM | 3.98 µM | 1.26 µM
5 | Cc1cc(NC(=O)C2CCCCC2)n(-c2nc3c(c(=O)[nH]2)CCC3)n1 | 0.316 µM | > 100 µM | 0.158 µM | 50.1 µM | 3.16 µM | 0.158 µM | 10 µM | 0.126 µM | 0.501 µM | 2 µM | 5.01 µM | 0.0398 µM
6 | CC1CCCN(S(=O)(=O)c2ccc(C(=O)Nc3nc(-c4ccccn4)cs3)cc2)C1 (configuration not stated) | 0.398 µM | 2.51 µM | 0.251 µM | 39.8 µM | 0.158 µM | 0.398 µM | 5.01 µM | 0.2 µM | 0.501 µM | 3.16 µM | 0.251 µM | 1.58 µM
7 | CC(c1ccc2c(c1)CCCC2)N(C)c1ncc2c(N)nc(N)nc2n1 (configuration not stated) | 0.0316 µM | 25.1 µM | 0.01 µM | 50.1 µM | 0.794 µM | 12.6 µM | 25.1 µM | 15.8 µM | 0.0316 µM | 10 µM | 2 µM | 2.51 µM
8 | O=C(CCc1ccc(-c2ccccc2)o1)N1CCN(c2ccc(O)cc2)CC1 | 3.16 µM | 2.51 µM | 0.794 µM | > 100 µM | 1.26 µM | 39.8 µM | > 50.1 µM | 25.1 µM | 1.26 µM | > 50.1 µM | 3.98 µM | 10 µM
9 | O=C(Cn1cnc2c(-c3ccccc3)csc2c1=O)N1CCCCC1 | 3.55 µM | 39.8 µM | 3.16 µM | > 100 µM | > 50.1 µM | 1 µM | > 50.1 µM | 0.794 µM | 3.98 µM | > 50.1 µM | > 50.1 µM | > 50.1 µM
10 | COc1cc(Nc2nccc(Nc3onc(C)c3C)n2)cc(S(=O)(=O)C2CCOCC2)c1 | 6.31 µM | 7.94 µM | 12.6 µM | 31.6 µM | 5.01 µM | 0.501 µM | 39.8 µM | 0.501 µM | 25.1 µM | 10 µM | > 50.1 µM | 39.8 µM
11 | Cc1nn2c(NCCCO)c3c(nc2c1-c1cccs1)CCC3 | 15.8 µM | 25.1 µM | 5.01 µM | > 100 µM | > 50.1 µM | 0.398 µM | > 50.1 µM | 0.316 µM | 50.1 µM | > 50.1 µM | > 50.1 µM | 2 µM
